In one data set the test system is recombinant NL4-3 virus. Kind of data set: HIV cell culture assay (antiviral activity, luciferase readout in infected MT-2 cells). To be noted: Human immunodeficiency virus 1, NL43, MT2. The format is cell-based. The procedure:
HIV cell culture assay—MT-2 cells, 293T cells and the proviral DNA clone of NL4-3 virus were obtained from the NIH AIDS Research and Reference Reagent Program. MT-2 cells were propagated in RPMI 1640 media supplemented with 10% heat inactivated fetal bovine serum (FBS), 100 μg/ml penicillin G and up to 100 units/mL streptomycin. The 293T cells were propagated in DMEM media supplemented with 10% heat inactivated FBS, 100 μg/mL penicillin G and 100 μg/mL streptomycin. A recombinant NL4-3 proviral clone, in which a section of the nef gene was replaced with the Renilla luciferase gene, was used to make the reference virus used in these studies. The recombinant virus was prepared through transfection of the recombinant NL4-3 proviral clone into 293T cells using Transit-293 Transfection Reagent from Mirus Bio LLC (Madison, WI). Supernatant was harvested after 2-3 days and the amount of virus present was titered in MT-2 cells using luciferase enzyme activity as a marker by measuring luciferase enzyme activity. Luciferase was quantitated using the EnduRen Live Cell Substrate from Promega (Madison, WI). Antiviral activities of compounds toward the recombinant virus were quantified by measuring luciferase activity in MT-2 cells infected for 4-5 days with the recombinant virus in the presence of serial dilutions of the compound.
The 50% effective concentration (EC50) was calculated by using the exponential form of the median effect equation where (Fa)=1/[1+(ED50/drug conc.)m] (Johnson VA, Byington RT. Infectivity Assay. In Techniques in HIV Research. ed. Aldovini A, Walker BD. 71-76. New York: Stockton Press.1990). Curve fitting and analysis were performed with ActivityBase XE Runner software version 9.1.0.4 using model 203 (ID Business Solutions, LTD, Guildford, UK).

Data set [1] in a line: Compound cytotoxicity, XTT-based colorimetric assay. It counts as cell-based. To be noted: human; uninfected MT2 cells, day 4, XTT assay. The procedure: Compound cytotoxicity and the corresponding CC50 values were determined using the same protocol as described in the antiviral assay except that uninfected cells were used. Cytotoxicity was assessed on day 4 in uninfected MT2 cells by using an XTT (2,3-bis[2-Methoxy-4-nitro-5-sulfophenyl]-2H-tetrazolium-5-carboxyanilide inner salt)-based colorimetric assay (Sigma-Aldrich, St Louis, Mo).

A value given as a limit tells only on which side of the number the result lay.

Here are results for four compounds from patent US20230355626A1, “INHIBITORS OF HUMAN IMMUNODEFICIENCY VIRUS REPLICATION” (VIIV HEALTHCARE UK (NO.5) LIMITED, priority 2020, published 2023).

As to `CN(CCOc1ccc2c(=O)n(-c3ccc(Cl)c4c(NS(C)(=O)=O)nn(C)c34)c([C@H](Cc3cc(F)cc(F)c3)NC(=O)Cn3nc(C(F)F)c4c3C(F)(F)[C@@H]3C[C@H]43)nc2n1)CC(F)(F)F` (atropisomer, axis not shown; (P)) [Example 9, N-((S)-1-((3P)-3-(4-chloro-1-methyl-3-(methylsulfonamido)-1H-indazol-7-yl)-7-(2-(methyl(2,2,2-trifluoroethyl)amino)ethoxy)-4-oxo-3,4-dihydropyrido[2,3-d]pyrimidin-2-yl)-2-(3,5-difluorophenyl)ethyl)-2-((3bS,4aR)-3-(difluoromethyl)-5,5-difluoro-3b,4,4a,5-tetrahydro-1H-cyclopropa[3,4]cyclopenta[1,2-c]pyrazol-1-yl)acetamide], the EC50 in the data set with recombinant NL4-3 virus turned out to be 0.018 nM. Also, the CC50 at 4 day in data set [1] was greater than 100 nM.
For the compound `Cn1nc(NS(C)(=O)=O)c2c(Cl)ccc(-n3c([C@H](Cc4cc(F)cc(F)c4)NC(=O)Cn4nc(C(F)F)c5c4C(F)(F)[C@@H]4C[C@H]54)nc4nc(OCC(F)(F)C(F)(F)C(F)(F)C(F)(F)F)ccc4c3=O)c21` (atropisomer, axis not shown; (P)) [Example 40, N-((S)-1-((3P,3P)-3-(4-chloro-1-methyl-3-(methylsulfonamido)-1H-indazol-7-yl)-7-((2,2,3,3,4,4,5,5,5-nonafluoropentyl)oxy)-4-oxo-3,4-dihydropyrido[2,3-d]pyrimidin-2-yl)-2-(3,5-difluorophenyl)ethyl)-2-((3bS,4aR)-3-(difluoromethyl)-5,5-difluoro-3b,4,4a,5-tetrahydro-1H-cyclopropa[3,4]cyclopenta[1,2-c]pyrazol-1-yl)acetamide], the EC50 with recombinant NL4-3 virus turned out to be 0.31 nM. The same compound displayed a CC50 at 4 day in data set [1] greater than 100 nM.
The corresponding values for `Cn1nc(NS(C)(=O)=O)c2c(Cl)ccc(-n3c([C@H](Cc4cc(F)cc(F)c4)NC(=O)Cn4nc(C(F)F)c5c4C(F)(F)[C@@H]4C[C@H]54)nc4nc(OCc5ccncc5)ccc4c3=O)c21` (atropisomer, axis not shown; (P)) [Example 2, N-((S)-1-((3P,3P)-3-(4-chloro-1-methyl-3-(methylsulfonamido)-1H-indazol-7-yl)-4-oxo-7-(pyridin-4-ylmethoxy)-3,4-dihydropyrido[2,3-d]pyrimidin-2-yl)-2-(3,5-difluorophenyl)ethyl)-2-((3bS,4aR)-3-(difluoromethyl)-5,5-difluoro-3b,4,4a,5-tetrahydro-1H-cyclopropa[3,4]cyclopenta[1,2-c]pyrazol-1-yl)acetamide] are 0.06 nM and greater than 100 nM.
The matching figures for `Cn1nc(NS(C)(=O)=O)c2c(Cl)ccc(-n3c([C@H](Cc4cc(F)cc(F)c4)NC(=O)Cn4nc(C(F)F)c5c4C(F)(F)[C@@H]4C[C@H]54)nc4nc(OCCC(C)(C)C(F)(F)F)ccc4c3=O)c21` (atropisomer, axis not shown; (P)) [Example 4, N-((S)-1-((3P)-3-(4-chloro-1-methyl-3-(methylsulfonamido)-1H-indazol-7-yl)-4-oxo-7-(4,4,4-trifluoro-3,3-dimethylbutoxy)-3,4-dihydropyrido[2,3-d]pyrimidin-2-yl)-2-(3,5-difluorophenyl)ethyl)-2-((3bS,4aR)-3-(difluoromethyl)-5,5-difluoro-3b,4,4a,5-tetrahydro-1H-cyclopropa[3,4]cyclopenta[1,2-c]pyrazol-1-yl)acetamide]: 0.078 nM and greater than 200 nM.
